Reference: patent US9695200B2, “Heterocyclic ITK inhibitors for treating inflammation and cancer” (Confluence Life Sciences, Inc., priority 2015, dated 2017)
pIC50: −log10 of the molar value.

tested on: phospho-PLCγ1 in Jurkat cells; experiment: ITK target modulation PLC-γ assay (phospho-PLCγ1, αCD3-stimulated Jurkat cells); assay type: cell-based, human; conditions: Homo sapiens, 1 hour compound incubation, αCD3 Dynabeads stimulation 8 minutes, MSD phospho-PLCγ1, read-out: PLC-γ Inhibition IC50
Experimental: Jurkat cells, an immortalized human T-lymphocyte cell line, were maintained in RPMI media, 10% FBS, 1% pen/strep/glutamine (growth media). Cells were plated in growth media plus 50 μM β-mercaptoethanol at 400,000 cells per well of a 96 well plate.
Compounds were serially diluted into DMSO, and then into media to concentrations 10× that of the final assay concentration. Compounds were then added to the cells with the final assay DMSO concentration being 0.1%. Cells were incubated for 1 hour at 37° C.
Following compound incubation, αCD3 Dynabeads were added at 1 bead/cell to each assay well and incubated at 37° C. for 7 minutes. Unstimulated control wells received media only. The plate was then placed on a 96-well magnetic plate for an additional 60 seconds (total assay stimulation time equals 8 minutes). The plate was then dumped and gently patted dry on a paper towel. 50 μl of complete Meso Scale Discovery (MSD) Lysis buffer was then added to each well. Samples were assayed for phospho-PLCγ1 using Meso Scale Discovery technology.
The assay stimulation time has been optimized for detection of Itk kinase-mediated phosphorylation of PLCγ1. The timing and detection reagents for this assay could be adjusted to capture phosphorylation events upstream (e.g., phospho-ZAP70) or downstream of the Itk/PLCγ1 node, provided the appropriate phospho-specific antibodies are available for building of an MSD assay.

| pIC50 | Structure (SMILES) |
| --- | --- |
| < 5.30 | C=CC(=O)NC1CN(c2cnc3[nH]cc(-c4ccnc(C#N)c4)c3c2)C1 [Example 5, N-(1-(3-(2-Cyanopyridin-4-yl)-1H-pyrrolo[2,3-b]pyridin-5-yl)azetidin-3-yl)acrylamide] |
| 5.30 to 6.00 | C=CC(=O)Nc1cccc(-c2cnc3[nH]cc(-c4cccnc4)c3c2)c1 [Example 12, N-(3-(3-(pyridin-3-yl)-1H-pyrrolo[2,3-b]pyridin-5-yl)phenyl)acryl-amide] |
| < 5.30 | C=CC(=O)Nc1cc(C#N)cc(-c2cnc3[nH]cc(-c4ccncc4)c3c2)c1 [Example 19, N-(3-cyano-5-(3-(pyridin-4-yl)-1H-pyrrolo[2,3-b]pyridin-5-yl)phenyl)acryl-amide] |
| > 6.00 | C=CC(=O)Nc1cc(-c2cnc3[nH]cc(-c4ccncc4)c3c2)cc(C(F)(F)F)c1 [Example 20, N-(3-(3-(pyridin-4-yl)-1H-pyrrolo[2,3-b]pyridin-5-yl)-5-(trifluoromethyl)phenyl)acryl-amide] |
| > 6.00 | C=CC(=O)Nc1cc(OC)cc(-c2cnc3[nH]cc(-c4ccncc4)c3c2)c1 [Example 22, N-(3-methoxy-5-(3-(pyridin-4-yl)-1H-pyrrolo[2,3-b]pyridin-5-yl)phenyl)acryl-amide] |
| > 6.00 | C=CC(=O)Nc1cccc(-c2cnc3[nH]cc(-c4ccnc(F)c4)c3c2)c1 [Example 25, N-(3-(3-(2-fluoropyridin-4-yl)-1H-pyrrolo[2,3-b]pyridin-5-yl)phenyl)acryl-amide] |
| > 6.00 | C=CC(=O)Nc1cccc(-c2cnc3[nH]cc(-c4ccnc(C)c4)c3c2)c1 [Example 26, N-(3-(3-(2-methylpyridin-4-yl)-1H-pyrrolo[2,3-b]pyridin-5-yl)phenyl)acryl-amide] |
| 5.30 to 6.00 | C=CC(=O)Nc1cccc(-c2cnc3[nH]cc(-c4cc(C)nc(OC)c4)c3c2)c1 [Example 29, N-(3-(3-(2-methoxy-6-methylpyridin-4-yl)-1H-pyrrolo[2,3-b]pyridin-5-yl)phenyl)acryl-amide] |
| 5.30 to 6.00 | C=CC(=O)Nc1cccc(-c2cnc3[nH]cc(-c4ccc(OC)nc4)c3c2)c1 [Example 30, N-(3-(3-(6-methoxypyridin-3-yl)-1H-pyrrolo[2,3-b]pyridin-5-yl)phenyl)acryl-amide] |
| < 5.30 | C=CC(=O)Nc1cccc(-c2cnc3[nH]cc(-c4cc(OC)nc(C(F)(F)F)c4)c3c2)c1 [Example 31, N-(3-(3-(2-methoxy-6-(trifluoromethyl)pyridin-4-yl)-1H-pyrrolo[2,3-b]pyridin-5-yl)phenyl)acryl-amide] |
| > 6.00 | C=CC(=O)Nc1cccc(-c2cnc3[nH]cc(-c4ccnc(NC)c4)c3c2)c1 [Example 32, N-(3-(3-(2-(methylamino)pyridin-4-yl)-1H-pyrrolo[2,3-b]pyridin-5-yl)phenyl)acryl-amide] |
| 5.30 to 6.00 | Cc1cc(-c2c[nH]c3ncc(-c4cccc(/C=C(\C#N)C(N)=O)c4)cc23)ccn1 [Example 33, (E)-2-cyano-3-(3-(3-(2-methylpyridin-4-yl)-1H-pyrrolo[2,3-b]pyridin-5-yl)phenyl)acryl-amide] |
| 5.30 to 6.00 | C=CC(=O)Nc1cccc(-c2cnc3[nH]cc(-c4ccccc4C)c3c2)c1 [Example 42, N-(3-(3-(o-tolyl)-1H-pyrrolo[2,3-b]pyridin-5-yl)phenyl)acryl-amide] |
| 5.30 to 6.00 | C=CC(=O)Nc1cccc(-c2cnc3[nH]cc(-c4cncc(Cl)c4)c3c2)c1 [Example 43, N-(3-(3-(5-chloropyridin-3-yl)-1H-pyrrolo[2,3-b]pyridin-5-yl)phenyl)acryl-amide] |
| 5.30 to 6.00 | C=CC(=O)Nc1cccc(-c2cnc3[nH]cc(-c4cc(C)ncn4)c3c2)c1 [Example 44, N-(3-(3-(6-methylpyrimidin-4-yl)-1H-pyrrolo[2,3-b]pyridin-5-yl)phenyl)acryl-amide] |
| > 6.00 | C=CC(=O)Nc1cccc(-c2cnc3[nH]cc(-c4ccc(F)nc4)c3c2)c1 [Example 46, N-(3-(3-(6-fluoropyridin-3-yl)-1H-pyrrolo[2,3-b]pyridin-5-yl)phenyl)acryl-amide] |
| 5.30 to 6.00 | C=CC(=O)Nc1cccc(-c2cnc3[nH]cc(-c4ccc(NC)nc4)c3c2)c1 [Example 48, N-(3-(3-(6-(methylamino)pyridin-3-yl)-1H-pyrrolo[2,3-b]pyridin-5-yl)phenyl)acryl-amide] |
| > 6.00 | C=CC(=O)Nc1cccc(-c2cnc3[nH]cc(-c4ccncn4)c3c2)c1 [Example 49, N-(3-(3-(pyrimidin-4-yl)-1H-pyrrolo[2,3-b]pyridin-5-yl)phenyl)acryl-amide] |

| pIC50 | Structure (SMILES) |
| --- | --- |
| > 6.00 | C=CC(=O)Nc1cccc(-c2cnc3[nH]cc(-c4ccc(=O)n(CC5CC5)c4)c3c2)c1 [Example 50, N-(3-(3-(1-(cyclopropyl-methyl)-6-oxo-1,6-dihydropyridin-3-yl)-1H-pyrrolo[2,3-b]pyridin-5-yl)phenyl)acryl-amide] |
| 5.30 to 6.00 | C=CC(=O)Nc1cccc(-c2cnc3[nH]cc(-c4cccc(OC)c4)c3c2)c1 [Example 51, N-(3-(3-(3-methoxyphenyl)-1H-pyrrolo[2,3-b]pyridin-5-yl)phenyl)acryl-amide] |
| < 5.30 | C=CC(=O)Nc1cccc(-c2cnc3[nH]cc(-c4cc(C)cc(OC)n4)c3c2)c1 [Example 52, N-(3-(3-(6-methoxy-4-methylpyridin-2-yl)-1H-pyrrolo[2,3-b]pyridin-5-yl)phenyl)acryl-amide] |
| < 5.30 | C=CC(=O)Nc1cccc(-c2cnc3[nH]cc(-c4cccc5ccccc45)c3c2)c1 [Example 53, N-(3-(3-(naphthalen-1-yl)-1H-pyrrolo[2,3-b]pyridin-5-yl)phenyl)acryl-amide] |
| 5.30 to 6.00 | C=CC(=O)Nc1cccc(-c2cnc3[nH]cc(-c4cccc5ncccc45)c3c2)c1 [Example 54, N-(3-(3-(quinolin-5-yl)-1H-pyrrolo[2,3-b]pyridin-5-yl)phenyl)acryl-amide] |
| < 5.30 | C=CC(=O)Nc1cccc(-c2cnc3[nH]cc(-c4cccc5cnccc45)c3c2)c1 [Example 55, N-(3-(3-(isoquinolin-5-yl)-1H-pyrrolo[2,3-b]pyridin-5-yl)phenyl)acryl-amide] |
| 5.30 to 6.00 | C=CC(=O)Nc1cccc(-c2cnc3[nH]cc(-c4cc(NC)ncn4)c3c2)c1 [Example 56, N-(3-(3-(6-(methylamino)pyrimidin-4-yl)-1H-pyrrolo[2,3-b]pyridin-5-yl)phenyl)acryl-amide] |
| > 6.00 | C=CC(=O)Nc1cc(-c2cnc3[nH]cc(-c4ccc(F)nc4)c3c2)cc(C(F)(F)F)c1 [Example 57, N-(3-(3-(6-fluoropyridin-3-yl)-1H-pyrrolo[2,3-b]pyridin-5-yl)-5-(trifluoromethyl)phenyl)acryl-amide] |
| 5.30 to 6.00 | C=CC(=O)Nc1cc(-c2cnc3[nH]cc(-c4ccc(OC)nc4)c3c2)cc(C(F)(F)F)c1 [Example 58, N-(3-(3-(6-methoxypyridin-3-yl)-1H-pyrrolo[2,3-b]pyridin-5-yl)-5-(trifluoromethyl)phenyl)acryl-amide] |
| > 6.00 | C=CC(=O)Nc1cc(-c2cnc3[nH]cc(-c4cccnc4)c3c2)cc(C(F)(F)F)c1 [Example 59, N-(3-(3-(pyridin-3-yl)-1H-pyrrolo[2,3-b]pyridin-5-yl)-5-(trifluoromethyl)phenyl)acryl-amide] |
| < 5.30 | COc1cc(/C=C(\C#N)C(N)=O)cc(-c2cnc3[nH]cc(-c4ccnc(OC)c4)c3c2)c1 [Example 60, (E)-2-cyano-3-(3-methoxy-5-(3-(2-methoxypyridin-4-yl)-1H-pyrrolo[2,3-b]pyridin-5-yl)phenyl)acryl-amide] |
| > 6.00 | C=CC(=O)Nc1cc(-c2cnc3[nH]cc(-c4ccnc(F)c4)c3c2)cc(C(F)(F)F)c1 [Example 61, N-(3-(3-(2-fluoropyridin-4-yl)-1H-pyrrolo[2,3-b]pyridin-5-yl)-5-(trifluoromethyl)phenyl)acryl-amide] |
| > 6.00 | C=CC(=O)Nc1cccc(-c2cnc3[nH]cc(-c4ccnc5[nH]ccc45)c3c2)c1 [Example 62, N-(3-(1H,1′H-[3,4′-bipyrrolo[2,3-b]pyridin]-5-yl)phenyl)acryl-amide] |
| < 5.30 | N#C/C(=C\c1cccc(-c2cnc3[nH]cc(-c4ccc(F)nc4)c3c2)c1)C(N)=O [Example 63, (E)-2-cyano-3-(3-(3-(6-fluoropyridin-3-yl)-1H-pyrrolo[2,3-b]pyridin-5-yl)phenyl)acryl-amide] |
| 5.30 to 6.00 | C=CC(=O)Nc1cccc(-c2cnc3[nH]cc(-c4ccnc5ccccc45)c3c2)c1 [Example 64, N-(3-(3-(quinolin-4-yl)-1H-pyrrolo[2,3-b]pyridin-5-yl)phenyl)acryl-amide] |
| < 5.30 | COC/C=C/C(=O)Nc1cccc(-c2cnc3[nH]cc(-c4ccnc(OC)c4)c3c2)c1 [Example 65, (E)-4-methoxy-N-(3-(3-(2-methoxypyridin-4-yl)-1H-pyrrolo[2,3-b]pyridin-5-yl)phenyl)but-2-enamide] |
| 5.30 to 6.00 | C=CC(=O)Nc1cccc(-c2cnc3[nH]cc(-c4ccc(=O)n(CC(C)(C)O)c4)c3c2)c1 [Example 66, N-(3-(3-(1-(2-hydroxy-2-methylpropyl)-6-oxo-1,6-dihydropyridin-3-yl)-1H-pyrrolo[2,3-b]pyridin-5-yl)phenyl)acryl-amide] |
| < 5.30 | C=C(C)C(=O)Nc1cc(-c2cnc3[nH]cc(-c4ccnc(OC)c4)c3c2)cc(-c2cnn(C)c2)n1 [Example 70, N-(4-(3-(2-methoxypyridin-4-yl)-1H-pyrrolo[2,3-b]pyridin-5-yl)-6-(1-methyl-1H-pyrazol-4-yl)pyridin-2-yl)methacryl-amide] |
